Converted amounts (≈) assume the structure as drawn. Where two headings read alike, the source gives them in different places.
What was measured:
[1] = Metabolic stability, mouse liver microsomes; format: in vitro ADME; settings: CD-1 mouse liver microsomes 1 mg/ml, 1 mM NADPH, pH 7.4, 37° C.
Description: (§1) Test compounds were incubated with mouse liver microsomes (CD-1; male and female pooled; 1 mg/ml) or human liver microsomes (male; 1 mg/ml) in 50 mM potassium phosphate, pH 7.4, and 1 mM NADPH at 37° C. Aliquots were removed at 0, 15, 30, 60, 90 and 120 min, and amounts of test compounds remaining were determined by LC-MS/MS. Half lives (t0.5) were calculated as t0.5=−0.693/k, where k is the slope of the linear regression of the natural logarithms of percentages of test compounds remaining vs. time.

[2] = target: E. coli RNA polymerase σ70 holoenzyme (Escherichia coli, UniProt P0A8T7+P0A8V2); experiment: Fluorescence-detected inhibition of bacterial RNA polymerase; format: biochemical
Chain of E. coli RNA polymerase σ70 holoenzyme (P0A8V2 whole entry, the tested form may be a part): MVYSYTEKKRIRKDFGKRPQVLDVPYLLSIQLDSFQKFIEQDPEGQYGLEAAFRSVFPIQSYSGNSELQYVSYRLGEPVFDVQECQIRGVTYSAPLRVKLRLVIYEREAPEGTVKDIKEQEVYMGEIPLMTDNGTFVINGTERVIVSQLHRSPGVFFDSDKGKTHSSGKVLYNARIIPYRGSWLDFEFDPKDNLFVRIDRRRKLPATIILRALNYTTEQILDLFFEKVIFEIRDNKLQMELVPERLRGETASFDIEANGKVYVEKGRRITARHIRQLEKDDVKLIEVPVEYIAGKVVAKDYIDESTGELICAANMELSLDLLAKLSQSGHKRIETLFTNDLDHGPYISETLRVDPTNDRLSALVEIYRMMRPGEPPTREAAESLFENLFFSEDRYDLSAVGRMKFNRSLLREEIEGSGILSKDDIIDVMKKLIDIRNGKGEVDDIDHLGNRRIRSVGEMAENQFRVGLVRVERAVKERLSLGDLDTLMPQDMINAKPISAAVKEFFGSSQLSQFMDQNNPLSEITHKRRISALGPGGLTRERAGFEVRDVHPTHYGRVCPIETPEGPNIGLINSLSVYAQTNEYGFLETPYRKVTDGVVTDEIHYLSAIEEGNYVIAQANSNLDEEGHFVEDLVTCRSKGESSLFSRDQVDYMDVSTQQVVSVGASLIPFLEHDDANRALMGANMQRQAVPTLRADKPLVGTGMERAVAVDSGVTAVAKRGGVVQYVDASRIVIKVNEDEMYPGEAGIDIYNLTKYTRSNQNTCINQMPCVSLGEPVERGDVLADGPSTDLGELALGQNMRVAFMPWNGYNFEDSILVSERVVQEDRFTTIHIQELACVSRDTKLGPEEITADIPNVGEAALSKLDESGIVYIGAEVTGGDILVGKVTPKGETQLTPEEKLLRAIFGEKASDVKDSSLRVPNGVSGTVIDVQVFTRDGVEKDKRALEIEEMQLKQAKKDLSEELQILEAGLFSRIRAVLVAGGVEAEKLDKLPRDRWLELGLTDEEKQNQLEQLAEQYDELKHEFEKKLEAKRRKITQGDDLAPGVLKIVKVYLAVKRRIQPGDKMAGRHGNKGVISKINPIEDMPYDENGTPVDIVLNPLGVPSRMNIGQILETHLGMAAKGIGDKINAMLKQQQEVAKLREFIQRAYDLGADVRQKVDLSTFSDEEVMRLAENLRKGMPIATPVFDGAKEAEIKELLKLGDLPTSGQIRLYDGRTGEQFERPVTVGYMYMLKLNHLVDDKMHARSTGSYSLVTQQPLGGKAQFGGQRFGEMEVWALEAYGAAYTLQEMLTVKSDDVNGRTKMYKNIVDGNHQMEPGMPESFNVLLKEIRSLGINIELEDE
Chain of E. coli RNA polymerase σ70 holoenzyme (P0A8T7 whole entry, the tested form may be a part): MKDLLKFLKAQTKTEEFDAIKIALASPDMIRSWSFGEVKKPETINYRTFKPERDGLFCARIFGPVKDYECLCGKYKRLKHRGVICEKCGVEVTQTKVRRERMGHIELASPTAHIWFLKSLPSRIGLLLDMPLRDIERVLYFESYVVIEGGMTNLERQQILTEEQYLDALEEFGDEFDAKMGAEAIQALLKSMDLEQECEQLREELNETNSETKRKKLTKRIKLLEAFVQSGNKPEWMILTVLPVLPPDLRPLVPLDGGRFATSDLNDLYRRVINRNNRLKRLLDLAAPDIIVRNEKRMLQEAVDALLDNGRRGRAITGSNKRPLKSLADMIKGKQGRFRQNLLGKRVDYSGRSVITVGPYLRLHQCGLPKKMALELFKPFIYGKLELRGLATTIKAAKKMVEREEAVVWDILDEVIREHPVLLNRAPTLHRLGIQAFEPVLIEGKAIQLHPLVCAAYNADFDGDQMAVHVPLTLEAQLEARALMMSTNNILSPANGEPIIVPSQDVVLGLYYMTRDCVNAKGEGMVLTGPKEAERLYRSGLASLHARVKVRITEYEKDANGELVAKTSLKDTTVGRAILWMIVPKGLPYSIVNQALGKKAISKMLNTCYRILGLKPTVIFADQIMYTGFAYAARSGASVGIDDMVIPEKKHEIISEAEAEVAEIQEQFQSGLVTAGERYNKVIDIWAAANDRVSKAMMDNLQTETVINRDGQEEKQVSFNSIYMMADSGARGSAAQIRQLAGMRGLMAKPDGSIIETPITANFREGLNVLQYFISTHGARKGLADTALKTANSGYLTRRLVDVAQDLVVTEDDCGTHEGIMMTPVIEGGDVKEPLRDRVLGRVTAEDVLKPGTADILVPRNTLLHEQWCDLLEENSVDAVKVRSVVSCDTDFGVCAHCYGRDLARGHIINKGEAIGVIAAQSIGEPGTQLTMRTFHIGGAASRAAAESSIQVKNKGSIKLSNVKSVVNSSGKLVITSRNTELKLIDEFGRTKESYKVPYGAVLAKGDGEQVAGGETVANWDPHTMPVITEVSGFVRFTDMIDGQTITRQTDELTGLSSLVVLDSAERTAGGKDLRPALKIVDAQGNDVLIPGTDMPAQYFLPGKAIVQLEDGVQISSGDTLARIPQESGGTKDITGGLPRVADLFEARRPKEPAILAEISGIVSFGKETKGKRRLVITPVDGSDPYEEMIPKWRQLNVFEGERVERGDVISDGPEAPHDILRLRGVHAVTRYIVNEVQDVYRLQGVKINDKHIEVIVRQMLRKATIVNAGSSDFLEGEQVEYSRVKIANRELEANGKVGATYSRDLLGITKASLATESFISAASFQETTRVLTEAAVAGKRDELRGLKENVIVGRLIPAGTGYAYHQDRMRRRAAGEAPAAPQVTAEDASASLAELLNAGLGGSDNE
Chain of E. coli RNA polymerase σ70 holoenzyme (P0A7Z4 whole entry partner, the tested form may be a part): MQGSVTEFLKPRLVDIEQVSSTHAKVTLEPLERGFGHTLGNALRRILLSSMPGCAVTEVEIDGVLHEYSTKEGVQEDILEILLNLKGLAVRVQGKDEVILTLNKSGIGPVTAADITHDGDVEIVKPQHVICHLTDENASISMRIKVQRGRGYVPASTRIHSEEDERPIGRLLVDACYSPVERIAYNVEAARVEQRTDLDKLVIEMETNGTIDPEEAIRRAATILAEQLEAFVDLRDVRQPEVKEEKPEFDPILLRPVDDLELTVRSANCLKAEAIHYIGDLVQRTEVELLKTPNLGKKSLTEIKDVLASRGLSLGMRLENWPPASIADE
Chain of E. coli RNA polymerase σ70 holoenzyme (P0A800 2-91 partner limits assumed): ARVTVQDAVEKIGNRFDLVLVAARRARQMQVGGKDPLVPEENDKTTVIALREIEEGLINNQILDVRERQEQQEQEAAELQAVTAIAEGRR
Chain of E. coli RNA polymerase σ70 holoenzyme (P00579 whole entry partner, the tested form may be a part): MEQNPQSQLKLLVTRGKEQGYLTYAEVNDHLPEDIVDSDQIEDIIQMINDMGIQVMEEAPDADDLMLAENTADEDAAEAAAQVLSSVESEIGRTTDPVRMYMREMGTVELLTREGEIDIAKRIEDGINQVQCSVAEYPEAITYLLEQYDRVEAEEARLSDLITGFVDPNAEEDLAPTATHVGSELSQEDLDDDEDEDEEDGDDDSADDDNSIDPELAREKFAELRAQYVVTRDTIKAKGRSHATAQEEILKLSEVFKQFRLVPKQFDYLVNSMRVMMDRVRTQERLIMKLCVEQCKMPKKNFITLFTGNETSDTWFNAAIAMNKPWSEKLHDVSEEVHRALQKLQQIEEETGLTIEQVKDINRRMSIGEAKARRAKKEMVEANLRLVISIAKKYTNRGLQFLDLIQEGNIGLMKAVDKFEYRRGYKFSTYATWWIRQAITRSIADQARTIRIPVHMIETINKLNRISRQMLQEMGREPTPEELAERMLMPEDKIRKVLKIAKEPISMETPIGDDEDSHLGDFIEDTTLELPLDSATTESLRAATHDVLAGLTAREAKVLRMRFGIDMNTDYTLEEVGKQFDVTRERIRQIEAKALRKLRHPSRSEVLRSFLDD
Description: Fluorescence-detected RNA polymerase assays with E. coli RNA polymerase were performed by a modification of the procedure of Kuhlman et al., 2004 [Kuhlman, P., Duff, H. & Galant, A. (2004) A fluorescence-based assay for multisubunit DNA-dependent RNA polymerases. Anal. Biochem. 324, 183-190]. Reaction mixtures contained (20 μl): 0-100 nM test compound, 75 nM E. coli RNA polymerase σ^70holoenzyme, 20 nM 384 bp DNA fragment containing the bacteriophage T4 N25 promoter, 100 μM ATP, 100 μM GTP, 100 μM UTP, 100 μM CTP, 50 mM Tris-HCl, pH 8.0, 100 mM KCl, 10 mM MgCl2, 1 mM DTT, 10 μg/ml bovine serum albumin, and 5.5% glycerol. Reaction components other than DNA and NTPs were pre-incubated for 10 min at 37° C. Reactions were carried out by addition of DNA and incubation for 5 min at 37° C., followed by addition of NTPs and incubation for 60 min at 37° C. DNA was removed by addition of 1 μl 5 mM CaCl2 and 2 U DNaseI (Ambion, Inc.), followed by incubation for 90 min at 37° C. RNA was quantified by addition of 100 μl RiboGreen RNA Quantitation Reagent (Invitrogen, Inc.; 1:500 dilution in Tris-HCl, pH 8.0, 1 mM EDTA), followed by incubation for 10 min at 25° C., followed by measurement of fluorescence intensity [excitation wavelength=485 nm and emission wavelength=535 nm; QuantaMaster QM1 spectrofluorometer (PTI, Inc.)]. IC50 is defined as the concentration of inhibitor resulting in 50% inhibition of RNA polymerase activity.

[3] = Metabolic stability, human liver microsomes; format: in vitro ADME; settings: human liver microsomes (male) 1 mg/ml, 1 mM NADPH, pH 7.4, 37° C.
Description: as §1

[4] = tested on: Staphylococcus aureus ATCC 12600; experiment: Inhibition of growth of Staphylococcus aureus (spiral gradient endpoint assay); format: cell-based; settings: read-out: in vitro antibacterial activity S. aureus ATCC 12600 MIC
From the text: Minimum inhibitory concentrations (MICs) for Staphylococcus aureus ATCC 12600 were quantified using spiral gradient endpoint assays, essentially as described [Wallace, A. and Corkill, J. (1989) Application of the spiral plating method to study antimicrobial action. J. Microbiol. Meths. 10, 303-310; Paton, J., Holt, A., and Bywater, M. (1990) Measurement of MICs of antibacterial agents by spiral gradient endpoint compared with conventional dilution methods. Int. J. Exp. Clin. Chemother. 3, 31-38; Schalkowsky S. (1994) Measures of susceptibility from a spiral gradient of drug concentrations. Adv. Exp. Med. Biol. 349, 107-120]. Assays employed exponential-gradient plates containing 150 mm×4 mm Mueller-Hinton II cation-adjusted agar and 0.4-100 μg/ml of test compound. Plates were prepared using an Autoplate 4000 spiral plater (Spiral Biotech, Inc.). Saturated overnight cultures were swabbed radially onto plates, and plates were incubated for 16 h at 37° C. For each culture, the streak length was measured using a clear plastic template (Spiral Biotech, Inc.), the test-compound concentration at the streak endpoint was calculated using the program SGE (Spiral Biotech, Inc.), and the MIC was defined as the calculated test-compound concentration at the streak endpoint.

[5] = tested on: Mycobacterium tuberculosis H37Rv; experiment: Inhibition of growth of Mycobacterium tuberculosis (microplate Alamar Blue assay); format: cell-based; settings: read-out: in vitro antibacterial activity M. tuberculosis H37Rv MIC
[6] = In vivo pharmacokinetics in mice (intravenous administration); settings: CD-1 mice, 2.5 mg/kg
Description: Test compounds (2.5 mg/kg; 0.1 ml of 0.625 mg/ml solution in 5% dimethylacetamide and 4% Cremophor EL in 100 mM sodium phosphate, pH 7.4) were administered to mice (CD-1; […]; n=3) by intravenous injection into a tail vein at t=0 h. Blood samples were collected by tail-vein bleed (CB 300 K2E tubes; Sarstedt) at t=0.02, 0.05, 1, 3, 5, and 8 h, and plasma concentrations of test compounds were determined by LC-MS/MS.

[7] = 75 nM E. coli RNAP holoenzyme, RiboGreen fluorescence, read-out: in vitro RNAP-inhibitory activity E. coli RNAP IC50
[8] = ATCC12600, spiral gradient endpoint assay, 16 h at 37° C.

SMILES | mouse liver microsome t0.5 [1] | IC50 [2, 7] | human liver microsome t0.5 [3] | MIC ([4]; ATCC12600, 16 h) | MIC [5] | IC50 [2] | MIC [4, 8] | plasma t0.5 [6]
[2H]C([2H])([2H])OC(=O)N/C=C/CCC(C)c1cc(O)c(C(=O)/C(C)=C/C=C(\C)CCC(F)(F)F)c(=O)o1 (centres unmarked) [Example 13] | >120 min | 23 nM | 33 min |  |  |  |  | 
[2H]C([2H])([2H])OC(=O)N/C=C/CCCc1cc([O-])c(C(=O)/C(C)=C/c2cnc(Oc3ccc(F)c(Cl)c3)s2)c(=O)o1.[Na+] [Example 15] |  |  |  | 0.17 µg/mL | 0.78 µg/mL | 2.9 nM |  | 
[2H]C([2H])([2H])OC(=O)N/C=C/CCCc1cc(O)c(C(=O)/C(C)=C/c2cnc(Oc3ccc(F)c(Br)c3)s2)c(=O)o1 [Example 18] |  | 1.6 nM |  |  | 0.78 µg/mL (≈ 1.31 µM) |  | 0.35 µg/mL (≈ 0.587 µM) | 
[2H]C([2H])([2H])OC(=O)N/C=C/CCCc1cc(O)c(C(=O)/C(C)=C/c2cnc(Oc3ccc(F)c(Cl)c3)s2)c(=O)o1 [Example 14] | 65 min | 2.9 nM | 21 min |  | 0.78 µg/mL (≈ 1.41 µM) |  | 0.19 µg/mL (≈ 0.344 µM) | 1.8 h
COC(=O)N/C=C/CCC(C)c1cc(O)c(C(=O)/C(C)=C/C=C(\C)CCC(F)(F)F)c(=O)o1 (centres unmarked) [Example 11, reference compound] | 100 min | 12 nM | 25 min |  |  |  |  | 
[2H]C([2H])([2H])OC(=O)N/C=C/CCC(C)c1cc(O)c(C(=O)/C(C)=C/c2sc(Oc3ccc(F)cc3)nc2C)c(=O)o1 (centres unmarked) [Example 4] | 59 min | 6.8 nM | 16 min |  |  |  | 0.24 µg/mL (≈ 0.44 µM) | 2.7 h
COC(=O)N/C=C/CCC(C)c1cc(O)c(C(=O)/C(C)=C/c2cnc(Oc3ccc(F)cc3)s2)c(=O)o1 (centres unmarked) [Example 2] | 60 min | 9.6 nM | 14 min |  | 3.12 µg/mL (≈ 5.91 µM) |  | 0.5 µg/mL (≈ 0.946 µM) | 2.8 h
[2H]C([2H])([2H])OC(=O)N/C=C/CCC(C)c1cc(O)c(C(=O)/C(C)=C/c2cnc(Oc3ccc(F)cc3)s2)c(=O)o1 (centres unmarked) [Example 5] | >120 min | 5.3 nM | 21 min |  | 1.56 µg/mL (≈ 2.93 µM) |  | 0.3 µg/mL (≈ 0.564 µM) | 3.0 h
[2H]C([2H])([2H])OC(=O)N/C=C/CCCc1cc(O)c(C(=O)/C(C)=C/c2cnc(Oc3ccc(F)c(F)c3)s2)c(=O)o1 [Example 20] |  | 3 nM |  |  | 0.78 µg/mL (≈ 1.46 µM) |  | 0.26 µg/mL (≈ 0.485 µM) | 
[2H]C([2H])([2H])OC(=O)N/C=C/CCCc1cc([O-])c(C(=O)/C(C)=C/c2cnc(Oc3ccc(-c4ccccc4)cc3)s2)c(=O)o1.[Na+] [Example 17] |  |  |  |  | > 50 µg/mL | 49 nM |  | 
[2H]C([2H])([2H])OC(=O)N/C=C/CCC(C)c1cc(O)c(C(=O)/C(C)=C/C=C(\C)CCCC)c(=O)o1 (centres unmarked) [Example 12] | 66 min |  | 4.2 min |  |  |  |  | 
[2H]C([2H])([2H])OC(=O)N/C=C/CCCc1cc(O)c(C(=O)/C(C)=C/c2cnc(Oc3ccc(F)cc3)s2)c(=O)o1 [Example 8] | >120 min | 3 nM | 21 min |  | 0.78 µg/mL (≈ 1.51 µM) |  | 0.25 µg/mL (≈ 0.483 µM) | 2.7 h
COC(=O)N/C=C/CCCc1cc(O)c(C(=O)/C(C)=C/c2cnc(Oc3ccc(F)cc3)s2)c(=O)o1 [Example 6] | >120 min | 8.4 nM | 8.6 min |  | 0.78 µg/mL (≈ 1.52 µM) |  | 0.73 µg/mL (≈ 1.42 µM) | 2.4 h
[2H]C([2H])([2H])OC(=O)N/C=C/CCCc1cc(O)c(C(=O)/C(C)=C/c2sc(Oc3ccc(F)cc3)nc2C)c(=O)o1 [Example 7] | >120 min | 2 nM | 8.3 min |  | 0.78 µg/mL (≈ 1.47 µM) |  | 0.19 µg/mL (≈ 0.357 µM) | 2.6 h
COC(=O)N/C=C/CCC(C)c1cc(O)c(C(=O)/C(C)=C/c2sc(Oc3ccc(F)cc3)nc2C)c(=O)o1 (centres unmarked) [Example 1] | 21 min | 5.6 nM | 8.3 min |  | 3.12 µg/mL (≈ 5.76 µM) |  | 0.35 µg/mL (≈ 0.645 µM) | 2.7 h
[2H]C([2H])([2H])OC(=O)N/C=C/CCCc1cc(O)c(C(=O)/C(C)=C/c2cnc(Oc3ccc(F)c(-c4ccccc4)c3)s2)c(=O)o1 [Example 19] |  | 1.2 nM |  |  | 25 µg/mL (≈ 42.1 µM) |  | 0.93 µg/mL (≈ 1.57 µM) | 
CCCC/C(C)=C/C=C(\C)C(=O)c1c(O)cc(C(C)CC/C=C/NC(=O)OC)oc1=O (racemic) [Example 10, (±)Myxopyronin B, reference compound] | 21 min | 13 nM | 1.7 min |  |  |  |  | 
[2H]C([2H])([2H])OC(=O)N/C=C/CCCc1cc(O)c(C(=O)/C(C)=C/c2cnc(Oc3ccc(-c4ccccc4)cc3)s2)c(=O)o1 [Example 16] | 46 min | 18 nM | 44 min |  | > 50 µg/mL |  | > 8 µg/mL | 
COC(=O)N/C=C/CCCc1cc(O)c(C(=O)/C(C)=C/c2sc(Oc3ccc(F)cc3)nc2C)c(=O)o1 [Example 3] | 110 min | 4.5 nM | 5.6 min |  | 1.56 µg/mL (≈ 2.95 µM) |  | 0.17 µg/mL (≈ 0.322 µM) | 2.5 h
[2H]C([2H])([2H])OC(=O)N/C=C/CCCc1cc([O-])c(C(=O)/C(C)=C/c2cnc(Oc3ccc(F)cc3)s2)c(=O)o1.[Na+] [Example 9] | >120 min |  | 29 min | 0.41 µg/mL | 0.39 µg/mL | 3 nM |  | 3.9 h
